Assay results as given in patent US7319086B1, “Method of prophylaxis and treatment and agents useful for same” (priority 1999, dated 2008).

Key:
Design in all cases: species or system P. gingivalis
[1] = biological target: binding of rHA2 or the gingipains (RgpA, Kgp) to hemoglobin (Porphyromonas gingivalis, UniProt Q51816, A1188S/A1219P/Q1165E); assay: solution-phase competition assay, hemoglobin-coated wells (rHA2 or gingipains); settings: preincubated 1 hr, read-out: IC50, inhibition of binding to hemoglobin
Experimental: (§1) Data are representative of two separate experiments. The absence of contaminating protein in a 90 μg protoporphyrin IX preparation was verified by SDS-PAGE and by Coomassie dye binding.
(§2) The IC50s for ligand binding in solution phase competition assays were determined. […] Hemoglobin was used as it was considered to represent the dominant form of porphyrin presentation in the pathological environment of chronic periodontitis.

[2] = biological target: binding of rHA2 or the gingipains (RgpA, Kgp) to hemin (Porphyromonas gingivalis, UniProt Q51816, A1188S/A1219P/Q1165E); assay: solution-phase competition assay, hemin-coated wells; settings: read-out: IC50, inhibition of binding to hemin
Experimental: as §1, §2

rHA2 = assay: directed porphyrin binding: porphyrins linked by carbodiimide to ethylene diamine-coated wells; settings: propionic acid groups linked to fixed amines, compared with non-derivatized porphyrin; 125 ng/ml rHA2
Experimental: Microtiter wells were coated with 100 mM ethylene diamine (pH 4.7) then incubated with 90 μg/ml hemin, protoporphyrin IX, or hematoporphyrin overnight in 50% dimethyl formamide in the presence (+) or absence (−) of 10 mM carbodiimide. Wells were washed 4 times with water then the amount of porphyrin bound to the wells was determined by absorbance at 414 nm (striped bars). […] Error bars represent standard deviation of absorbance measurements. Diagrams of chemical structures for hemin, protoporphyrin IX, and hematoporphyrin are presented adjacent to corresponding data.
The inventors reasoned, therefore, that blocking access to the acidic region of protoporphyrin molecules would have an effect on rHA2-binding and allow more specific characterization of binding between the HA2 domain and the porphyrin ring. Modifying the ligand binding assay system used above, surfaces were first coated with ethylene diamine to provide fixed, free, primary amines for carbodiimide linkage of carboxylic acid groups.

| Compound | IC50 [1] [µM] | IC50 [2] [µM] | rHA2-binding to carbodiimide-treated porphyrin (rHA2) |
| --- | --- | --- | --- |
| C=CC1=C(C)c2cc3[nH]c(cc4nc(cc5[nH]c(cc1n2)c(C)c5CCC(=O)O)C(CCC(=O)O)=C4C)c(C)c3C=C [protoporphyrin IX] | 10 ± 2 | ~2.5 | – |
| hemin | – | – | almost eliminated |
